One experiment relates to sebum secretion. As to the kind of experiment: Inhibitory effect of MMPs inhibitors on sebum secretion in UVB-irradiated hairless mice (sebumeter). It is filed as in vivo. An excerpt: UV is generally known to activate the sebaceous gland cells on the skin and thereby to enhance the amount of sebum secretion, which has been reported on a model using hairless mice ([…] et al., Arch Dermatol., Vol. 284, 106 (1992)). In an experiment, Bissett et al. (Phytochem. Phytobiol, Vol. 46, 3, 367 (1987)) applied the method of preparing a light-aged skin, and induced the activation of sebaceous gland cells and enhancement in the amount of sebum by irradiating the dorsal area of the […] repeatedly three times per week for 5-8 weeks by controlling the amount of UVB irradiation to under the […] formation level. […] As the control, a group in which the solvent for the test substance was applied in a similar protocol was set up, and the effect of inhibiting sebum was evaluated by comparing the amount of sebum between the two. The measurement of sebum amount was performed using a sebumeter (COURAGE KHAZAKA company). From the measured values, the ratio (%) of sebum inhibition was calculated based on the following criteria: [formula]

Experiment [1] relates to gelatinase belonging to the MMPs. The following applies: skin irradiated with UVB for 10 weeks, EDTA (100 mM) added in vitro; FIG. 3C.
From the text: By staining gelatin with the Ponceau solution, the gelatin digested area (the area in which the gelatinase activity is present) was rendered white for detection.
A further experiment has as its system sebaceous gland. As to the kind of experiment: Effect of transdermal application of an MMPs inhibitor on sebaceous gland development under UVB stimulation. In kind it is in vivo, hairless mice. The note with it: FIG. 4A vs solvent only FIG. 4B. An excerpt: It is known that when UVB (50 mJ/cm^2-200 mJ/cm^2; 50 mJ/cm^2 at the start of irradiation, the amount of irradiation is increased stepwise depending on the number of irradiations) below the erythema formation level is repeatedly irradiated to hairless mice, the sebaceous gland becomes developed and the amount of sebum increases (R. H. Lesnik et al., Arch Dermatol., Vol. 284, 106 (1992)). FIG. 2A and FIG. 2B represent the H&E stains of the UVB-non-irradiated tissue and the UVB-irradiated tissue. It is observed that UVB irradiation results in the thickening of the epidermis as well as the development of the sebaceous gland.
(§1) The effect of the transdermal application of an MMPs inhibitor on the sebaceous gland development and the gelatinase activity present in the sebaceous gland is shown for active substance A as an example (FIG. 4A and FIG. 4B).

The next experiment concerns gelatinase. Nature of the experiment: Gelatinase activity in the sebaceous gland after transdermal application, in situ zymography. It is filed as in vivo, hairless mice. The following applies: FIG. 4A vs solvent only FIG. 4B.
From the text: as §1

[2] abbreviates: 100 μl of 1% test substance applied three times per week immediately after each UV irradiation, vs solvent group, hairless mice dorsal area, 5-8 weeks UVB.

Structures can show the parent of a compound that is named as a salt.

As to `COc1cc(/C=C/C(=O)CC(=O)/C=C/c2ccc(O)c(OC)c2)ccc1O` [Curcumine, curcumine], the “Ratio of sebum inhibition (%)” value in the experiment with sebum secretion (setting [2]) is recorded as 77%.

As for `O=C(O)CN(CCN(CC(=O)O)CC(=O)O)CC(=O)O` [EDTA], the “Gelatin degradation at the epidermal area and the sebaceous gland area” value in experiment [1] is listed as “inhibited the gelatin degradation”.

Regarding `C[C@]12CC[C@@H]3c4ccc(O)cc4CC[C@H]3[C@@H]1CC[C@@H]2O` [Estradiol, estradiol, reference compound], the “Ratio of sebum inhibition (%)” value in the experiment on sebum secretion (positive control, 0.6 mg/kg oral administration, UVB-irradiated hairless mice) is reported as 65%.

Consider `COc1ccc(S(=O)(=O)N(Cc2cccnc2)[C@@H](C(=O)NO)C(C)C)cc1` [Hydrochloride of active ingredient A], for which the “Ratio of sebum inhibition (%)” value in the experiment on sebum secretion (setting [2]) was found to be 79%.

As for `COc1ccc(S(=O)(=O)N(Cc2cccnc2)[C@@H](C(=O)NO)C(C)C)cc1` [active substance A], the “Development of the sebaceous gland area” value in the experiment on sebaceous gland is reported as “suppresses the development of the sebaceous gland area”. In addition, in the experiment with gelatinase, the “Gelatinase activity present in the sebaceous gland” value is on record as “inhibited”.
